This is an account of results in article PMC9513756, “Establishing a UHPLC-MS/MS method for evaluation of the influence of stir-frying on the pharmacokinetics of seven compounds in Arctii Fructus” (RSC Advances, 2022).

Molecules are shown by their SMILES. Read-outs that look alike come from different tables or passages of the source.

A short description of the data set: Pharmacokinetics of seven compounds in rat plasma after oral administration of RAF and SAF extracts (UHPLC-MS/MS). The settings on record: for AUC(0-inf) / AUC(0-t) / Tmax / half-life / MRT inf: male, Sprague-Dawley, rat, plasma, po, 12 g/kg. It counts as in vivo, male Sprague-Dawley rats.
Setting [1] is: oral RAF extract 12 g kg^−1, n = 6.
The mark [2] stands for this setting: oral RAF extract 12 g kg^−1, n = 6, read-out: Mean residence time (MRT(0–∞)).
Setting [3] is: oral SAF extract 12 g kg^−1, n = 6.
The mark [4] stands for this setting: oral SAF extract 12 g kg^−1, n = 6, read-out: Mean residence time (MRT(0–∞)).

Method: All the components were measured using a Shimadzu UHPLC system (Shimadzu, Japan), and a Triple Quadrupole 5500 LC-MS/MS system (AB Sciex, USA) in negative ion mode. […] The gradient program was: 5–28% B (0–3 min), 28% B (3–3.5 min), 28–38% B (3.5–4 min), 38% B (4–4.5 min), 38–100% B (4.5–6 min), 100–5% B (6–7 min). With a column temperature of 40 °C, the optimized key parameters including curtain gas, collision gas, ion spray voltage, and temperature were assigned values of 55 psi, 35 psi, 4500 V, and 550 °C, respectively.
The rat plasma sample (100 μL), IS (10 μL), and 2 M HCl (20 μL) were mixed and vortex mixed for 3 min. Subsequently, 1 mL of ethyl acetate–butyl alcohol (1 : 1) was spiked into the mixed solution, and then centrifuged for 5 min at 25 000 × g.[14] Next, the supernatant was transferred and evaporated with nitrogen gas. These residues were then re-dissolved in 100 μL of 60% methanol, with the final solutions being vortex mixed for 3 min, and then centrifuged for 10 min at 25 000 × g. Finally, the supernatant was injected into the UHPLC-MS/MS for extensive analysis.
Firstly, male Sprague-Dawley rats (200–220 g) in the animal laboratory at the Nanjing University of Chinese Medicine under the standard conditions (License number: SYXK(SU)-2007-0030) were fed. The rats were fed and provided with water for one week prior to the experimentation. Secondly, before the administration of the extracts, the rats were stopped from eating but were provided with water for 12 h prior to the test. […] Depending on the clinical dosage administered to the human body, the dosage of RAF and SAF comprised 12 g kg^−1 for oral administration. In addition, 500 μL blood samples (about 250 μL plasma) were collected in 1.5 mL heparinized polythene tubes at 0, 0.033, 0.083, 0.167, 0.33, 0.5, 0.75, 1, 2, 4, 6, 8, 12, 24, and 48 h via the postorbital venous plexus veins, after oral administration of the two extracts was observed. Finally, the collected plasma was centrifuged for 5 min at 25 000 × g and stored at −20 °C before the analysis. All the pharmacokinetic parameters were evaluated with the DAS 1.0 system (Medical College of Wannan, China). Furthermore, the maximum concentration of oral administration of AF (Cmax) and the time to reach Cmax (Tmax) were derived from the concentration–time profile. All the values were given as mean ± standard deviation.

Turning to `O=C(C=Cc1ccc(O)c(O)c1)OC1C(O)CC(O)(C(=O)O)CC1O` (stereo not shown) [Cryptochlorogenic acid, cryptochlorogenic acid], under setting [1], the area under the curve AUC(0-inf) is 196 ± 59.1 ng·h/mL, the AUC(0-t) was determined as 152 ± 60.7 ng·h/mL, the Tmax is 0.431 ± 0.07 h and the half-life is 12.6 ± 7.96 h. For the same compound, under setting [1], the “C (max)” value stood at 34.80 ± 25.06 ng/mL. Also, the MRT inf under setting [2] turned out to be 19.9 ± 9.37 h. In addition, under setting [3], the AUC(0-inf) stood at 280 ± 68 ng·h/mL, the AUC(0-t) is 218 ± 80.3 ng·h/mL, the Tmax came out at 0.103 ± 0.05 h and the half-life was 13.5 ± 7.98 h. Moreover, the “C (max)” value under setting [3] was 116.16 ± 35.41 ng/mL. The MRT inf under setting [4] is 16.9 ± 8.6 h.

Take `O=C(/C=C/c1ccc(O)c(O)c1)O[C@@H]1C[C@](O)(C(=O)O)C[C@@H](O)[C@H]1O` [Chlorogenic acid, chlorogenic acid]: under setting [1], the AUC(0-inf) amounted to 1090 ± 588 ng·h/mL, the AUC(0-t) came to 1070 ± 594 ng·h/mL, the time of peak concentration (Tmax) came to 0.875 ± 0.41 h and the “C (max)” value is 348.5 ± 161.3 ng/mL. Moreover, the “t 1/2” value under setting [1] is 2.175 ± 0.28 h. Moreover, the MRT inf under setting [2] came out at 3.72 ± 0.6 h. In addition, under setting [3], the total exposure AUC(0-inf) turned out to be 937 ± 660 ng·h/mL, the AUC(0-t) worked out at 695 ± 307 ng·h/mL, the Tmax is 0.111 ± 0.43 h and the half-life was 4.37 ± 0.32 h. In addition, the “C (max)” value under setting [3] is 303.7 ± 105.7 ng/mL. Moreover, the MRT inf under setting [4] was determined as 5.09 ± 1.82 h.

Regarding `COc1ccc(C[C@H]2COC(=O)[C@@H]2Cc2ccc(O[C@@H]3O[C@H](CO)[C@@H](O)[C@H](O)[C@H]3O)c(OC)c2)cc1OC` [Arctiin, arctiin], under setting [1], the AUC(0-inf) came out at 1070 ± 417 ng·h/mL, the AUC(0-t) was 826 ± 216 ng·h/mL, the Tmax is 0.152 ± 0.09 h and the half-life was 3 ± 1.42 h. In addition, under setting [1], the “C (max)” value is 1019.3 ± 605.9 ng/mL. Further, the MRT inf under setting [2] amounted to 5.33 ± 2.99 h. Under setting [3], the AUC(0-inf) came out at 1970 ± 600 ng·h/mL, the AUC(0-t) is 943 ± 228 ng·h/mL, the Tmax is 0.072 ± 0.05 h and the half-life was 3.83 ± 1.86 h. Besides, under setting [3], the “C (max)” value was 605.7 ± 389.5 ng/mL. For the same compound, under setting [4], the MRT inf worked out at 8.98 ± 3.11 h.

With `O=C(C=Cc1ccc(O)c(O)c1)OC1CC(O)(C(=O)O)CC(O)C1OC(=O)C=Cc1ccc(O)c(O)c1` (stereo not shown) [Isochlorogenic acid B, isochlorogenic acid B], under setting [3], the half-life was 24.3 ± 11.5 h, the “C (max)” value was determined as 43.22 ± 26.80 ng/mL, the “Mean residence time (MRT(0–∞))” value worked out at 32.75 ± 15.17 h and the T max amounted to 6.18 ± 3 min. Under setting [1], the “C (max)” value amounted to 11.33 ± 8.68 ng/mL, the “Mean residence time (MRT(0–∞))” value came to 52.97 ± 27.74 h, the T max came to 7.02 ± 4.2 min and the “t 1/2” value is recorded as 35.68 ± 18.24 h.

In the case of `O=C(C=Cc1ccc(O)c(O)c1)OC1CC(O)(C(=O)O)CC(OC(=O)C=Cc2ccc(O)c(O)c2)C1O` (stereo not shown) [Isochlorogenic acid A, isochlorogenic acid A], under setting [1], the AUC(0-inf) is 272 ± 169 ng·h/mL, the AUC(0-t) stood at 219 ± 110 ng·h/mL, the Tmax was 0.792 ± 0.09 h and the half-life was 6.7 ± 3.61 h. For the same compound, the “C (max)” value under setting [1] is 99.05 ± 37.81 ng/mL. The MRT inf under setting [2] was 8.35 ± 2.91 h. Under setting [3], the AUC(0-inf) stood at 180 ± 63.6 ng·h/mL, the exposure AUC(0-t) came out at 101 ± 73.1 ng·h/mL, the time of peak concentration (Tmax) came out at 0.1 ± 0.07 h and the half-life is 3.27 ± 1.26 h. Also, the “C (max)” value under setting [3] is 135.71 ± 25.50 ng/mL. Moreover, under setting [4], the MRT inf was 7.97 ± 5.12 h.

In the case of `O=C(C=Cc1ccc(O)c(O)c1)OC1CC(O)(C(=O)O)CC(O)C1OC(=O)C=Cc1ccc(O)c(O)c1` (stereo not shown) [Isochlorogenic acid C, isochlorogenic acid C], under setting [1], the AUC(0-inf) was 84.1 ± 46.3 ng·h/mL, the AUC(0-t) was determined as 71.5 ± 33.2 ng·h/mL, the Tmax is 0.125 ± 0.05 h and the “C (max)” value came out at 39.89 ± 17.30 ng/mL. Also, under setting [1], the “Mean residence time (MRT(0–∞))” value turned out to be 15.89 ± 11.25 h and the “t 1/2” value is 9.002 ± 5.89 h. Besides, under setting [3], the area under the curve AUC(0-t) stood at 79.5 ± 25.1 ng·h/mL, the time of peak concentration (Tmax) was 0.078 ± 0.03 h, the “C (max)” value was determined as 103.84 ± 47.62 ng/mL and the “Mean residence time (MRT(0–∞))” value is recorded as 8.736 ± 5.55 h. For the same compound, under setting [3], the “t 1/2” value is listed as 6.770 ± 4.30 h.

For `COc1cc(C[C@H]2C(=O)OC[C@@H]2Cc2ccc(OC)c(OC)c2)ccc1O` [Arctigenin, arctigenin], the Tmax under setting [1] worked out at 9 ± 2.45 h and the time to peak (Tmax) under setting [3] turned out to be 8.67 ± 3.72 h. This compound gave a half-life under setting [1] of 8.25 ± 1.09 h and a half-life under setting [3] of 9.95 ± 4.46 h. Further, the MRT inf came to 14.9 ± 0.99 h under setting [2] and 17.8 ± 6.08 h under setting [4]. Under “oral RAF and SAF”, the “shape of plasma concentration-time profile” value was “double-peak phenomenon”. Moreover, the “C (max)” value runs as follows: under setting [1], 706.9 ± 148.9 ng/mL; under setting [3], 600.8 ± 158.3 ng/mL.
